Experimental data as given in paper PMC9074662, “Discovery of dihydrooxazolo[2,3-a]isoquinoliniums as highly specific inhibitors of hCE2” (RSC Advances, 2019).
Several values for one entry are separate records, joined by “and”; a condition that tells them apart may be missing. Equal entries are not always repeated.

Experiments:
hCE1 = target: T1, hCE1 (Homo sapiens, UniProt P23141); test: hCE1 inhibition assay (DME hydrolysis in human liver microsomes); assay type: biochemical; conditions: DME probe substrate (3 μM), HLM, PBS pH 6.8, 37 °C
T1 construct: tissue Bioreclamation IVT lot no; X008067; host or cells: pooled human liver microsomes, 50 donors
T1 sequence (P23141 18-567): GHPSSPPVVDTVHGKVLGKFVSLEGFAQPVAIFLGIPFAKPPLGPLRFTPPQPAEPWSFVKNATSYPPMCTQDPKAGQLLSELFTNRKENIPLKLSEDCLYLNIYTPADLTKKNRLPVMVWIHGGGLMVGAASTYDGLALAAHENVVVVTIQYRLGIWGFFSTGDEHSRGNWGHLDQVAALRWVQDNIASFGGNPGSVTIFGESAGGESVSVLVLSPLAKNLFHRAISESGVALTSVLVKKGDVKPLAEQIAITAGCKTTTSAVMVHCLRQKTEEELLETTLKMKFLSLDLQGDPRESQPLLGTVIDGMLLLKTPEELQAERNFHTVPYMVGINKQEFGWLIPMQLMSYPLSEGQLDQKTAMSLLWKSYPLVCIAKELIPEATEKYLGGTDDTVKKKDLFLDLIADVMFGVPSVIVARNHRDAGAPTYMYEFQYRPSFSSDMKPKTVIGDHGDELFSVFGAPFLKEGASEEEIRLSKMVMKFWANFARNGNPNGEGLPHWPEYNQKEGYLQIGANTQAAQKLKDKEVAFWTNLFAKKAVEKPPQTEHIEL
From the text: We designed and synthesized more than 30 derivatives of DCZ0358. However, the five-ring quaternary ammonium component of some derivatives was unstable to decompose easily into its hydrolyzate 23b. With 12 stable compounds in hand, we conducted experiments to assay inhibitory activities against both hCE1 and hCE2 using a panel of fluorescent probe substrates.[33–36]D-Luciferin methyl ester (DME) was used as a probe substrate, and nevadensin (a specific hCE1 inhibitor) was used as a positive inhibitor control for hCE1. […] DME was used as a probe substrate for evaluating the inhibitory effects of all DCZ0358 derivatives on hCE1, while nevadensin (a specific hCE1 inhibitor) was used as a positive control.[39] Briefly, 100 μL incubation mixture containing 91 μL PBS (pH 6.8), 2 μL inhibitor at different concentrations and 5 μL HLM (1 μg mL^−1, final concentration), were pre-incubated at 37 °C for 10 min. Subsequently, 2 μL DME (3 μM final concentration, close to the Km value of DME in HLM) was added to initiate the reaction. After incubating for 10 min at 37 °C in a shaking bath, the reaction was stopped by the addition of LDR (100 μL). The microplate reader (SpectraMax® iD3, Molecular Devices, Austria) was used for luminescence measurements. The gain value of luminescence detection was set at 140 volts, and the integration time was set at 1 s. The chemical structure of DME and its hydrolytic metabolite (D-luciferin), as well as the detection conditions for D-luciferin are depicted in Table S1. ^† The negative control incubation (DMSO only) was carried out under the same conditions. The residual activity was calculated using the following formula, the residual activity (%) = (the florescence intensity in the presence of inhibitor)/the florescence intensity in negative control × 100%. The residual activities are show in Fig. S1. ^†

hCE2 = target: T2, hCE2 (Homo sapiens, UniProt O00748); test: hCE2 inhibition assay (FD hydrolysis in human liver microsomes); assay type: biochemical; conditions: for IC50: FD probe substrate (5 μM), HLM, PBS pH 7.4, 37 °C; for Selectivity IC50(hCE1)/IC50(hCE2): ratio of IC50 values, hCE2 over hCE1 selectivity (fold)
T2 construct: tissue Bioreclamation IVT lot no; X008067; host or cells: pooled human liver microsomes, 50 donors
T2 sequence (O00748 27-559): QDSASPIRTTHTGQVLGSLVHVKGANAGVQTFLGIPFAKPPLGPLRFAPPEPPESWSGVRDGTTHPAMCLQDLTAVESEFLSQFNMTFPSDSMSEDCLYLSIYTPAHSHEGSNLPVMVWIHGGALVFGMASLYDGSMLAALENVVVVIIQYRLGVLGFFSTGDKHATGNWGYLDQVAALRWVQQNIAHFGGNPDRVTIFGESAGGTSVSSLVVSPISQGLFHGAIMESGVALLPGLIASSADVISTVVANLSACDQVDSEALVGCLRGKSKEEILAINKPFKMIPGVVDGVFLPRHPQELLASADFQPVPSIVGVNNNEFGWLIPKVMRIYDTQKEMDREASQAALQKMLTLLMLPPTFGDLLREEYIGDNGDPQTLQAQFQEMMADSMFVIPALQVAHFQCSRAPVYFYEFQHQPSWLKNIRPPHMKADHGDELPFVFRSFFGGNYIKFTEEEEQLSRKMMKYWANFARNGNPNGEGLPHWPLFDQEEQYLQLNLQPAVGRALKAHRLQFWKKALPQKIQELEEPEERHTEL
Experimental: In brief, 200 μL incubation mixture containing 0.1 M PBS (PH = 7.4), human liver microsomes (2 μg mL^−1, final concentration) and each inhibitor. […] After incubating for 30 min at 37 °C in a shaking bath, the reaction was stopped by the addition of acetonitrile (200 μL). The chemical structure of FD and its hydrolytic metabolite (fluorescein), as well as the detection conditions for fluorescein are depicted in Table S1. ^† The negative control incubation (DMSO only) was also carried out under the same conditions.[42] The residual activity was calculated using the formula mentioned above in hCE1 inhibition assay.

intracellular hCE2 = target: T3, intracellular hCE2 (Homo sapiens, UniProt O00748); test: Inhibition of intracellular hCE2 in living HepG2 cells (NCEN hydrolysis, fluorescence imaging); assay type: cell-based
T3 construct: endogenous in cells; host or cells: HepG2
T3 sequence (O00748 27-559): T2 sequence (O00748 27-559)
Experimental: In view of that hCE2 was an intracellular enzyme, the inhibition potential of 23o was investigated in living HepG2 cells. The HepG2 cells were cultured in Modified Eagle's Medium (MEM) with 5% CO2 and 0.1% antibiotic–antimycoticmix antibiotic at 37 °C, supplemented with 10% fetal bovine serum (FBS) and used NCEN as substrate probe to assay the 23o inhibition potential toward hCE2.
For fluorescence imaging, HepG2 cells were seeded in 96-well plates (8000 cells per well) with complete medium and then incubated for 24 hours. Afterwards, the cells were washed twice with FBS-free culture medium and then preincubated in the medium containing 23o (prepared in FBS-free at various concentrations) for 30 min with 5% CO2 at 37 °C. HepG2 cells were then co-incubated with NCEN (final concentration, 10 μM) for another 50 min to assess the intracellular hCE2 function, respectively. The living cells were imaged and analyzed using an ImageXpress® Micro Confocal High-Content Imaging system (Molecular Devices, Austria).

Row | Compound | IC50 (hCE1) [µM] | IC50 (hCE2) [µM] | Selectivity IC50(hCE1)/IC50(hCE2) (hCE2) | Ki (hCE2; Lineweaver-Burk plots, FD substrate, read-out: Ki against hCE2-mediated FD hydrolysis) | Inhibition mode against hCE2-mediated FD hydrolysis (hCE2; inhibition kinetics, FD substrate) | IC50 (intracellular hCE2; HepG2 cells, NCEN 10 μM substrate, read-out: IC50 against intracellular hCE2 in living HepG2 cells) [µM] | Inhibition of intracellular hCE2-mediated NCEN hydrolysis (fluorescence intensity, green channel) (intracellular hCE2; living HepG2 cells, 0-20 μM, NCEN 10 μM, 50 min)
1 | COc1ccc(COc2cc(-c3cc4ccc(OC)c(OC)c4c4[n+]3C(OC)CO4)ccc2OC)cc1 (centres unmarked) [Compound 23d, 3,9,10-trimethoxy-5-(4-methoxy-3-((4-methoxybenzyl)oxy)phenyl)-2,3-dihydrooxazolo[2,3-a]isoquinolin-4-ium] | > 100 | 6.89 | >14.52 |  |  |  | 
2 | COc1ccc(-c2cc3ccc(OC)c(OC)c3c3[n+]2C(OC)CO3)cc1OCc1ccc(C(C)(C)C)cc1 (centres unmarked) [Compound 23m, 5-(3-((4-(tert-Butyl)benzyl)oxy)-4-methoxyphenyl)-3,9,10-trimethoxy-2,3-dihydrooxazolo[2,3-a]isoquinolin-4-ium] | > 100 | 2.33 ± 0.2 | >42.81 |  |  |  | 
3 | COc1ccc(-c2cc3ccc(OC)c(OC)c3c3[n+]2C(OC)CO3)cc1OCc1ccc(-c2ccccc2)cc1 (centres unmarked) [Compound 23l, 5-(3-([1,1′-Biphenyl]-4-ylmethoxy)-4-methoxyphenyl)-3,9,10-trimethoxy-2,3-dihydrooxazolo[2,3-a]isoquinolin-4-ium] | > 100 | 2.64 ± 0.45 | >37.89 |  |  |  | 
4 | COc1ccc(-c2cc3ccc(OC)c(OC)c3c3[n+]2C(OC)CO3)cc1OCc1ccc2cccnc2c1 (centres unmarked) [Compound 23j, 3,9,10-Trimethoxy-5-(4-methoxy-3-(quinolin-7-ylmethoxy)phenyl)-2,3-dihydrooxazolo[2,3-a]isoquinolin-4-ium] | > 100 | 3.77 ± 0.25 | >26.51 |  |  |  | 
5 | COc1ccc(-c2cc3ccc(OC)c(OC)c3c3[n+]2C(OC)CO3)cc1OCc1ccc(C(F)(F)F)cc1 (centres unmarked) [Compound 23i, 3,9,10-Trimethoxy-5-(4-methoxy-3-((4-(trifluoromethyl)benzyl)oxy)phenyl)-2,3-dihydrooxazolo[2,3-a]isoquinolin-4-ium] | > 100 | 2.43 ± 0.28 | >41.22 |  |  |  | 
6 | COC(=O)c1ccc(COc2cc(-c3cc4ccc(OC)c(OC)c4c4[n+]3C(OC)CO4)ccc2OC)cc1 (centres unmarked) [Compound 23f, 3,9,10-Trimethoxy-5-(4-methoxy-3-((4-(methoxycarbonyl)benzyl)oxy)phenyl)-2,3-dihydrooxazolo[2,3-a]isoquinolin-4-ium] | > 100 | 5.73 ± 0.79 | >17.46 |  |  |  | 
7 | COc1ccc(-c2cc3ccc(OC)c(OC)c3c3[n+]2C(OC)CO3)cc1OCc1ccc(S(C)(=O)=O)cc1 (centres unmarked) [Compound 23e, 3,9,10-Trimethoxy-5-(4-methoxy-3-((4-(methylsulfonyl)benzyl)oxy)phenyl)-2,3-dihydrooxazolo[2,3-a]isoquinolin-4-ium] | > 100 | 11.5 ± 1.76 | >8.72 |  |  |  | 
8 | COc1cc(COc2cc(-c3cc4ccc(OC)c(OC)c4c4[n+]3C(OC)CO4)ccc2OC)cc(OC)c1 (centres unmarked) [Compound 23o, 5-(3-((3,5-Dimethoxybenzyl)oxy)-4-methoxyphenyl)-3,9,10-trimethoxy-2,3-dihydrooxazolo[2,3-a]isoquinolin-4-ium] | > 100 | 1.19 | >83.89 | 0.84 µM and 0.843 µM | mixed inhibitor | 2.29 | strongly inhibit
9 | COc1ccc2cc(-c3ccc4c(c3)OCO4)[n+]3c(c2c1OC)OCC3OC (centres unmarked) [Compound 23a] | 4.04 ± 0.4 | 16 ± 1.49 | >0.25 |  |  |  | 
10 | COc1ccc2cc(-c3ccc4c(c3)OCO4)n(C(CO)OC)c(=O)c2c1OC (centres unmarked) [Compound 23b] | 36.8 ± 7.7 | 41.7 ± 18.1 | >0.88 |  |  |  | 
11 | COc1ccc(-c2cc3ccc(OC)c(OC)c3c3[n+]2C(OC)CO3)cc1OCc1ccc([N+](=O)[O-])cc1 (centres unmarked) [Compound 23h, 3,9,10-Trimethoxy-5-(4-methoxy-3-((4-nitrobenzyl)oxy)phenyl)-2,3-dihydrooxazolo[2,3-a]isoquinolin-4-ium] | > 100 | 3.32 ± 0.87 | >30.14 |  |  |  | 
12 | COc1ccc(-c2cc3ccc(OC)c(OC)c3c3[n+]2C(OC)CO3)cc1OCc1ccc(C(C)C)cc1 (centres unmarked) [Compound 23n, 5-(3-((4-Isopropylbenzyl)oxy)-4-methoxyphenyl)-3,9,10-trimethoxy-2,3-dihydrooxazolo[2,3-a]isoquinolin-4-ium] | > 100 | 1.66 ± 0.21 | >60.31 |  |  |  | 
13 | COc1ccc(-c2cc3ccc(OC)c(OC)c3c3[n+]2C(OC)CO3)cc1OCc1ccc(C)cc1 (centres unmarked) [Compound 23k, 3,9,10-Trimethoxy-5-(4-methoxy-3-((4-methylbenzyl)oxy)phenyl)-2,3-dihydrooxazolo[2,3-a]isoquinolin-4-ium] | > 100 | 5.58 ± 0.94 | >17.94 |  |  |  | 
14 | COc1ccc(-c2cc(=O)c3c(O)c(OC)c(O)c(OC)c3o2)cc1 [Nevadensin, reference compound] | 2.64 ± 0.22 |  |  |  |  |  | 
15 | COc1ccc(-c2cc3ccc(OC)c(OC)c3c3[n+]2C(OC)CO3)cc1OCc1ccc(C#N)cc1 (centres unmarked) [Compound 23g, 5-(3-((4-Cyanobenzyl)oxy)-4-methoxyphenyl)-3,9,10-trimethoxy-2,3-dihydrooxazolo[2,3-a]isoquinolin-4-ium] | > 100 | 3.33 ± 0.32 | >30.07 |  |  |  | 
